Test results taken from a melting point compilation (Tetko et al.).

Row | Compound | melting point [°C]
1 | Clc1ccc(Br)c(Cl)n1 | 70
2 | COc1ccc(S(=O)(=O)Cl)cc1OC | 68
3 | CC(C)(C)P(C(C)(C)C)C(C)(C)C | 30
4 | Cc1csc2c(Cl)ncnc12 | 124 to 125
5 | OCc1ccc(OCc2ccccc2)cc1 | 86
6 | CCCCCC#CC(=O)O | 4
7 | OCC1OC(c2ccccc2)OC1CO (single isomer, unassigned; (+)) | 69 to 74
8 | CC(Cc1ccc(O)c(O)c1)(NN)C(=O)O (configuration not stated) | 208
9 | COC(=O)c1ccc(N2CCN(C(=O)OC(C)(C)C)CC2)cc1 | 166 to 167
10 | NCc1csc2ccc(Br)cc12 | 37 to 38
11 | CCOC(=O)c1ccc(Oc2ccc(C)nn2)cc1 | 70 to 73
12 | O=[N+]([O-])c1ccc(/C=N/n2c(S)nnc2C(F)(F)F)cc1 | 193
13 | Cc1c(Cl)cccc1Nc1ccccc1C(=O)O | 207
14 | Brc1cc(Br)c(Oc2cc(Br)c(Br)cc2Br)c(Br)c1 | 131 to 132
15 | Cc1cc(C(F)(F)F)cc(=O)[nH]1 | 130
16 | O=C(Nc1ccccc1)C(c1ccccc1)c1ccccc1 | 177
17 | CCC(C)Nc1c([N+](=O)[O-])cc(C(C)(C)C)cc1[N+](=O)[O-] (configuration not stated) | 60
18 | O=S(=O)(O)CCCNC(CO)(CO)CO | 240
19 | C=CC1CNCCC1CCC(=O)c1ccnc2ccc(OC)cc12 (configuration not stated) | 60
20 | CN(C)c1ccc([N+]([O-])=CC(=O)c2ccc(C(=O)C=[N+]([O-])c3ccc(N(C)C)cc3)cc2)cc1 | 132 to 134
21 | CCOC(=O)Cc1ccc(O)cc1 | 39 to 40
22 | N=c1oc2ccccc2cc1C(N)=S | 254
23 | Oc1ccc2cccc(Cl)c2c1 | 101
24 | c1ccc(C2CCNCC2)cc1 | 60.5
25 | CC(=O)OCC(COC(C)=O)(COC(C)=O)COC(C)=O | 83.5

Row | Compound | melting point [°C]
26 | CNC(=O)ON=C(SC)C(=O)N(C)C | 101
27 | CSc1nc2[nH]c(=S)[nH]c(=O)c2n1C | 289 to 290
28 | COc1ccc(C(=O)CC(=O)C(F)(F)F)cc1 | 57 to 58
29 | NC(CC(F)(F)F)C(=O)O (configuration not stated) | 256 to 258
30 | CCOC(=O)c1c[nH]cc1C | 74
31 | O=C(O)c1cccnc1Oc1ccc2c(c1)OCO2 | 181 to 183
32 | O=[N+]([O-])c1ccc(S(F)(F)(F)(F)F)cc1 | 38
33 | O=C(O)C(CBr)CBr | 100
34 | COC1CC2C3(C)CCCC2(COC3O)C2C(OC(C)=O)CC3C(C)C(=O)C12C3O (configuration not stated) | 200
35 | CN1C(=O)NC(=O)C1(C)C | 163
36 | CCCSc1nnc(S)s1 | 145 to 147
37 | N#Cc1cccc(-c2cccs2)c1 | 58 to 60
38 | Cc1nc(-c2cnccn2)sc1C(=O)O | 237 to 238
39 | NC(=S)NCCCc1ccccc1 | 111
40 | CC1(C)OC(=O)C(=NNc2ccccc2[N+](=O)[O-])C(=O)O1 | 165
41 | O=C1C=C(O)c2cccc3cccc1c23 | 261 to 264
42 | CSc1nc(N)c(C(=O)c2ccc(Br)cc2)s1 | 163 to 165
43 | CCC1CC(NC(=O)CBr)C(C)(C)N1O (configuration not stated) | 148 to 150
44 | COc1cc(C/C(=N\O)C(=O)O)ccc1O | 139
45 | Cn1c(=O)oc2ccccc21 | 82 to 86
46 | COc1ccc(C2Cc3ccccc3C(O)O2)cc1 (configuration not stated) | 114
47 | c1coc(CNc2ncnc3[nH]cnc23)c1 | 269 to 271
48 | Cc1cn(C2CC(F)C(CO)O2)c(=O)[nH]c1=O (configuration not stated) | 177
49 | CC(C)(C)c1nnc(NS(=O)(=O)c2ccc(N)cc2)s1 | 222
50 | O=C(O)Cc1cccc(Oc2ccccc2)c1 | 89

Next, values leading:

Row | melting point [°C] | Compound
51 | 127 to 128 | Cc1cc(-c2ccccc2)n[nH]1
52 | 79 | Clc1cc(N2CCCCC2)ncn1
53 | 102 to 104 | C(=Nc1ccccc1Nc1ccccc1N=Cc1ccccc1)c1ccccc1
54 | 168 | Cc1ccc(-c2cc(NN=c3c(C)nc4ccccc4[nH]c3=O)[nH]n2)cc1
55 | -40 | Cc1ccc2c(c1)CCCC2
56 | 195 | Cc1ccc2nc(-c3ccc(N)cc3)sc2c1
57 | 64 | COc1cccc(Br)c1O
58 | 98 to 100 | CCOc1cc(NC(=O)c2ccccc2)c(OCC)cc1N
59 | 220 to 222 | O=C1CC(c2ccccc2)Oc2ccc(O)cc21 (configuration not stated)
60 | 126 to 127 | O=S(=O)(c1ccc(N=C=S)cc1)N1CCCCC1
61 | 25 to 29 | CCCCCCCCCCCCCCCCc1ccccc1
62 | 220 to 222 | CCOC(=O)c1[nH]c(C)c(CO)c1C
63 | 155 to 156 | COc1c(C(=O)O)csc1Br
64 | 146 | O=c1n(-c2ccccc2)c(=O)n2n1C1OC3c4ccccc4C1C32 (configuration not stated)
65 | 104 to 105 | CCc1nc(C)c(C=O)[nH]1
66 | 154 to 156 | Nc1cc2ccccc2cn1
67 | 215 | O=C(O)C(=O)Cc1c[nH]c2ccccc12
68 | 204 | CC(=O)C=P(c1ccccc1)(c1ccccc1)c1ccccc1
69 | 58 to 59.5 | Fc1c(Cl)c(F)c(Br)c(F)c1Cl
70 | 151 | COc1ccc(-c2csc(/C(C#N)=N\Nc3ccc(C)cc3)n2)cc1
71 | 38 to 40 | NCc1ccc(-c2ccccc2)nc1

Row | melting point [°C] | Compound
72 | 92 to 93 | Cc1ccc2sc(Br)cc2c1
73 | 168 | O=C(O)c1cc(-c2cccs2)on1
74 | 57 to 60 | Cc1noc(C)c1[N+](=O)[O-]
75 | 56 to 58 | S=C=Nc1ccccc1N=C=S
76 | -70 | C1=COCCC1
77 | 186 to 188 | Clc1ccc(C2C3CCc4ccccc4C3=NN2c2ccc(Cl)cc2)cc1 (configuration not stated)
78 | 173 to 174 | CCOc1c2cccc1Cc1cccc(c1O)Cc1cccc(c1OP(=O)(OCC)OCC)Cc1cccc(c1O)C2
79 | 214 | Cc1cc(=O)n2nc(C(F)(F)F)nc2[nH]1
80 | 130 to 131 | C#CCNC(N)=O
81 | 195 to 199 | O=C(NO)c1ccc(Cl)cc1O
82 | 225 | ICC(CI)(CI)CI
83 | 174 | O=C(Nc1nc2ccccc2s1)C(C(F)(F)F)C(F)(F)F
84 | 56 | O=[N+]([O-])c1cc(F)c(Br)cc1F
85 | 114 to 119 | CC(=O)OCC1OC(S)C(OC(C)=O)C(OC(C)=O)C1OC(C)=O (configuration not stated)
86 | 148 | O=C(/C=C/c1ccc(-c2ccc(Cl)cc2)o1)c1ccco1
87 | > 300 | O=[N+]([O-])c1ccc(-c2nnc3n2CN(c2ccccn2)CS3)cc1
88 | 173 | C[Si]1(C)Oc2ccc3ccccc3c2-c2c(ccc3ccccc23)O[Si](C)(C)O1
89 | 222 | CC1(C)CC(=O)C2=C(C1)Nc1c(ccc3ccccc13)C2c1ccc(Cl)cc1Cl (configuration not stated)
90 | 81.5 to 82.5 | OCc1ccc(OC2CCOCC2)cc1
91 | 102 to 103 | N=c1sc(C(=O)c2cccs2)nn1-c1[nH]nc(-c2ccccc2)c1Br
92 | 158 to 162 | CCn1nc(C)c(Br)c1C(=O)O
